These results are taken from patent US20230144436A1, “MUSCLE TARGETING COMPLEXES AND USES THEREOF FOR TREATING MYOTONIC DYSTROPHY” (Dyne Therapeutics, Inc., priority 2020, published 2023).

In this data set the test system is DMPK. Kind of data set: DMPK knockdown by transfected antisense oligonucleotides in DM1 C15 myotubes at 0.5 nM and 50 nM. The format is cell-based. To be noted: 72 hours; for Normalized DMPK Remaining: relative to vehicle control = 1.00. Here is the method:
Two hundred and thirty-six oligonucleotides for targeting DMPK were generated using in silico analysis. Each individual oligonucleotide was evaluated for their ability to target DMPK in cellulo at two doses—0.5 nM (low dose) and 50 nM (high dose).
Briefly, DM1 C15 immortalized myoblasts were cultured in T-75 flasks until near confluency (˜80% confluent). Myoblasts were then disrupted with trypsin and seeded into 96-well microplates at a density of 50,000 cells/well. Cells were allowed to recover overnight before the growth media was washed out and replaced with a no-serum media to induce differentiation into myotubes. Differentiation proceeded for seven days prior to treatment with DMPK-targeting oligonucleotides.
On day seven following induction of differentiation, DM1 C15 myotubes were transfected with an individual oligonucleotide using 0.3 μL of Lipofectamine MessengerMax per well. All oligonucleotides were tested at both 0.5 nM and 50 nM final concentrations in biological triplicates. After treatment with oligonucleotides, cells were incubated for 72 hours prior to being harvested for total RNA. cDNA was synthesized from the total RNA extracts and qPCR was performed to determine expression levels of DMPK in technical quadruplicate. All qPCR data were analyzed using a traditional […] method and were normalized to a plate-based negative control that comprised cells treated with vehicle control (0.3 μL/well Lipofectamine MessengerMax without any oligonucleotide). Results from these experiments are shown in Table 10. ‘Normalized DMPK Remaining’ for each antisense oligonucleotide in Table 10 refers to the expression level of DMPK in cell treated with said antisense oligonucleotide relative to the negative control that comprised cells treated with vehicle control (wherein the expression level of the negative control has been normalized to equal 1.00)

Where [1] appears, read: 0.5 nM oligonucleotide, qPCR, relative to vehicle control.
The mark [2] stands for this setting: 50 nM oligonucleotide, qPCR, relative to vehicle control.

As for “417 (CCAGCAGGAUGUUGUCGGGU; chemistry not given here) [compound 417]”, where the note is “0.5 nM oligonucleotide”, the “Percent DMPK Reduction” value is 40.29% and the “Normalized DMPK Remaining” value is reported as 0.60. In addition, where the note is “50 nM oligonucleotide”, the “Percent DMPK Reduction” value stood at 89.59% and the “Normalized DMPK Remaining” value turned out to be 0.10.
In the case of “309 (CACAGCGGUCCAGCAGGAUG; chemistry not given here) [compound 309]”, the “Percent DMPK Reduction” value under setting [1] was determined as 6.62% and the “Percent DMPK Reduction” value under setting [2] is given as 59.58%. Moreover, the “Normalized DMPK Remaining” value (0.5 nM oligonucleotide, qPCR) was determined as 0.93 and the “Normalized DMPK Remaining” value (50 nM oligonucleotide, qPCR) is on record as 0.40.
The corresponding values for “296 (AUCUCCGCCAGGUAGAAGCG; chemistry not given here) [compound 296]” are 42.37%, 65.50%, 0.58 and 0.35.
Turning to “427 (UUGUUCAUGAUCUUCAUGGC; chemistry not given here) [compound 427]”, under “0.5 nM oligonucleotide”, the “Percent DMPK Reduction” value was 14.13% and the “Normalized DMPK Remaining” value is on record as 0.86. Also, under “50 nM oligonucleotide”, the “Percent DMPK Reduction” value amounted to 45.23% and the “Normalized DMPK Remaining” value is on record as 0.55.
In the case of “322 (GCUCAGGCUCUGCCGGGUGA; chemistry not given here) [compound 322]”, the “Percent DMPK Reduction” value is recorded as 25.69% under setting [1] and 60.71% under setting [2]. In addition, the “Normalized DMPK Remaining” value reads like this: (0.5 nM oligonucleotide, qPCR) 0.74; (50 nM oligonucleotide, qPCR) 0.39.
The like results for “339 (CUCCGCCAGGUAGAAGCGCG; chemistry not given here) [compound 339]” were, in that order, 30.22%, 78.14%, 0.70 and 0.22.
With “472 (AAGGGAUGUGUCCGGAAGUC; chemistry not given here) [compound 472]”, for the setting “0.5 nM oligonucleotide”, the “Percent DMPK Reduction” value is given as 10.37% and the “Normalized DMPK Remaining” value was 0.90. For the setting “50 nM oligonucleotide”, the “Percent DMPK Reduction” value was found to be 73.52% and the “Normalized DMPK Remaining” value is on record as 0.26.
With “389 (CCGAGAGCAGCGCAAGUGAG; chemistry not given here) [compound 389]”, where the note is “0.5 nM oligonucleotide”, the “Percent DMPK Reduction” value stood at 16.13% and the “Normalized DMPK Remaining” value worked out at 0.84. In addition, under “50 nM oligonucleotide”, the “Percent DMPK Reduction” value turned out to be 40.93% and the “Normalized DMPK Remaining” value stood at 0.59.
The like results for “410 (UACAGGUAGUUCUCAUCCUG; chemistry not given here) [compound 410]” were, in that order, 19.83%, 0.80, 72.51% and 0.27.
In the case of “477 (CAGCGGCAGAGAGAGGUGCT; chemistry not given here) [compound 477]”, under “0.5 nM oligonucleotide”, the “Percent DMPK Reduction” value was found to be 4.49% and the “Normalized DMPK Remaining” value was found to be 0.96. Under “50 nM oligonucleotide”, the “Percent DMPK Reduction” value is given as 86.00% and the “Normalized DMPK Remaining” value turned out to be 0.14.
The corresponding values for “426 (CTGCAGUUUGCCCAUCCACG; chemistry not given here) [compound 426]” are -10.69%, 1.11, 60.08% and 0.40.
On to “444 (GCGUCACCUCGGCCUCAGCC; chemistry not given here) [compound 444]”, for which, under “0.5 nM oligonucleotide”, the “Percent DMPK Reduction” value is 20.02% and the “Normalized DMPK Remaining” value stood at 0.80. Further, for the setting “50 nM oligonucleotide”, the “Percent DMPK Reduction” value is listed as 81.27% and the “Normalized DMPK Remaining” value amounted to 0.19.
The like results for “377 (UUUCCCGAGUAAGCAGGCAG; chemistry not given here) [compound 377]” were, in that order, 20.69%, 0.79, 44.89% and 0.55.
As for “284 (CACGUAAUACUCCAUGACCA; chemistry not given here) [compound 284]”, the “Percent DMPK Reduction” value is, setting by setting: under setting [1], 24.40%; under setting [2], 46.50%. Moreover, the “Normalized DMPK Remaining” value (0.5 nM oligonucleotide, qPCR) was 0.76 and the “Normalized DMPK Remaining” value (50 nM oligonucleotide, qPCR) worked out at 0.54.
Turning to “407 (CCAAACUUGCTCAGCAGUGU; chemistry not given here) [compound 407]”, where the note is “0.5 nM oligonucleotide”, the “Percent DMPK Reduction” value worked out at 23.64% and the “Normalized DMPK Remaining” value turned out to be 0.76. Moreover, under “50 nM oligonucleotide”, the “Percent DMPK Reduction” value is given as 57.70% and the “Normalized DMPK Remaining” value is given as 0.42.
As to “248 (CAAACUUGCUCAGCAGUGUC; chemistry not given here) [compound 248]”, the “Percent DMPK Reduction” value by setting is: under setting [1], 31.45%; under setting [2], 53.93%. Also, the “Normalized DMPK Remaining” value is given as 0.69 (0.5 nM oligonucleotide, qPCR) and 0.46 (50 nM oligonucleotide, qPCR).
As for “455 (UCCAGUUCCAUGGGUGUGGG; chemistry not given here) [compound 455]”, where the note is “0.5 nM oligonucleotide”, the “Percent DMPK Reduction” value is on record as 15.66% and the “Normalized DMPK Remaining” value came to 0.84. Further, where the note is “50 nM oligonucleotide”, the “Percent DMPK Reduction” value was determined as 78.48% and the “Normalized DMPK Remaining” value is reported as 0.22.
Consider “414 (UAGAACAUUUCAUAGGCGAA; chemistry not given here) [compound 414]”, for which, under “0.5 nM oligonucleotide”, the “Percent DMPK Reduction” value is 20.23% and the “Normalized DMPK Remaining” value was found to be 0.80. Besides, where the note is “50 nM oligonucleotide”, the “Percent DMPK Reduction” value came out at 43.67% and the “Normalized DMPK Remaining” value stood at 0.56.
The like results for “442 (AUGUUGUCGGGUUUGAUGUC; chemistry not given here) [compound 442]” were, in that order, 16.93%, 0.83, 52.83% and 0.47.
The corresponding values for “405 (CUUUGGGCAGAUGGAGGGCC; chemistry not given here) [compound 405]” are 28.06%, 0.72, 67.50% and 0.33.
The corresponding values for “437 (CAUCCGCUCCUGCAACUGCC; chemistry not given here) [compound 437]” are 21.04%, 0.79, 76.81% and 0.23.
For the substance “327 (CCCAAACUUGCUCAGCAGUG; chemistry not given here) [compound 327]”, the “Percent DMPK Reduction” value runs as follows: under setting [1], 37.02%; under setting [2], 61.78%. Moreover, the “Normalized DMPK Remaining” value was 0.63 (0.5 nM oligonucleotide, qPCR) and 0.38 (50 nM oligonucleotide, qPCR).
The corresponding values for “275 (AGCGCCUCCGAUAGGCCAGG; chemistry not given here) [compound 275]” are 21.19%, 61.91%, 0.79 and 0.38.
As to “305 (UGAUCUUCAUGGCAUACACC; chemistry not given here) [compound 305]”, the “Percent DMPK Reduction” value amounted to 27.70% under setting [1] and 89.68% under setting [2]. Moreover, the “Normalized DMPK Remaining” value worked out at 0.72 (0.5 nM oligonucleotide, qPCR) and 0.10 (50 nM oligonucleotide, qPCR).
“376 (GGCUCCUGGGCGGCGCCAGA; chemistry not given here) [compound 376]”: the “Percent DMPK Reduction” value reads like this: under setting [1], 0.05%; under setting [2], 96.23%. Moreover, the “Normalized DMPK Remaining” value (0.5 nM oligonucleotide, qPCR) stood at 1.00 and the “Normalized DMPK Remaining” value (50 nM oligonucleotide, qPCR) was found to be 0.04.
As for “312 (GUCUCAGUGCAUCCAAAACG; chemistry not given here) [compound 312]”, the “Percent DMPK Reduction” value turned out to be 18.85% under setting [1] and 46.13% under setting [2]. The “Normalized DMPK Remaining” value was 0.81 (0.5 nM oligonucleotide, qPCR) and 0.54 (50 nM oligonucleotide, qPCR).
The corresponding values for “349 (UUUGCCCAUCCACGUCAGGG; chemistry not given here) [compound 349]” are 32.79%, 59.36%, 0.67 and 0.41.
With “256 (UCCGCCAGGUAGAAGCGCGC; chemistry not given here) [compound 256]”, the “Percent DMPK Reduction” value is, setting by setting: under setting [1], 27.99%; under setting [2], 80.06%. Besides, the “Normalized DMPK Remaining” value by setting is: (0.5 nM oligonucleotide, qPCR) 0.72; (50 nM oligonucleotide, qPCR) 0.20.
“453 (CAGCAGGAUGUUGUCGGGUU; chemistry not given here) [compound 453]”: where the note is “0.5 nM oligonucleotide”, the “Percent DMPK Reduction” value was determined as 34.18% and the “Normalized DMPK Remaining” value was 0.66. In addition, under “50 nM oligonucleotide”, the “Percent DMPK Reduction” value was found to be 84.54% and the “Normalized DMPK Remaining” value is given as 0.15.
